These molecules were tested against human NAMPT (Homo sapiens (Human), UniProt P43490) (assay: NMN fluorescence biochemical assay (human recombinant NAMPT enzyme assay)).
Outline: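 NMN formed was detected by fluorescence (Ex/Em 355/460 nm) after acetophenone, KOH and formic acid derivatization. The cell-free reaction ran 60 min at ambient temperature with 6 nM human NAMPT, 150 μM nicotinamide, 20 μM PRPP, 2.5 mM ATP, pH 7.2 HEPES, and compound dose responses.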

Sequence of human NAMPT (P43490 whole entry): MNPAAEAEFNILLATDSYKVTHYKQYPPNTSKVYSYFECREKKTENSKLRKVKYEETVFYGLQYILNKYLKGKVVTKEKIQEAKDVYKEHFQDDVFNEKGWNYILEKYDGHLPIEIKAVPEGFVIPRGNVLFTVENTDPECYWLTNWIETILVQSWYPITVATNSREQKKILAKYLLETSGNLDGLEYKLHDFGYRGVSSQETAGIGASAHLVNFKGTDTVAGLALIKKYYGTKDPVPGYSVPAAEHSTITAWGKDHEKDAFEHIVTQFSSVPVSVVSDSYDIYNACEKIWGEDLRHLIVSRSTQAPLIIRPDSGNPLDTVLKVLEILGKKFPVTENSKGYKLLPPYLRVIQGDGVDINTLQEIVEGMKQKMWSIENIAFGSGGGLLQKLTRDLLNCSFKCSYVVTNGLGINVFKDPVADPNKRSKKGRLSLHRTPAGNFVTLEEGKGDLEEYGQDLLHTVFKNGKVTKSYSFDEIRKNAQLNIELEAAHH

Compound	AC1.4 Human	EC50
Cc1cc(C(=O)N[C@@H](C)c2ccc(NC(=O)OCc3ccc(Cl)cc3)cc2)n(C)n1 [Compound 139, (4-chlorophenyl)methyl N-{4-[(1S)-1-[(2,5-dimethylpyrazol-3-yl)formamido]ethyl]phenyl}carbamate]	1.11 µM	13.1 µM
Cc1noc(C(=O)NCc2ccc(NC(=O)OCc3ccc(Cl)cc3)cc2)c1C [Compound 140, (4-chlorophenyl)methyl N-(4-{[(3,4-dimethyl-1,2-oxazol-5-yl)formamido]methyl}phenyl)carbamate]	1.15 µM	4.51 µM
Cc1nn(C)c(C(=O)N[C@@H](C)c2ccc(NC(=O)OCc3ccc(Cl)cc3)cc2)c1F [Compound 141, (4-chlorophenyl)methyl N-{4-[(1S)-1-[(4-fluoro-2,5-dimethylpyrazol-3-yl)formamido]ethyl]phenyl}carbamate]	1.17 µM	2.24 µM
Cc1cnoc1C(=O)N[C@@H](C)c1ccc(NC(=O)OCc2ccc(Cl)cc2)cc1 [Compound 142, (4-chlorophenyl)methyl N-{4-[(1S)-1-[(4-methyl-1,2-oxazol-5-yl)formamido]ethyl]phenyl}carbamate]	1.17 µM	7.35 µM
C[C@@H](c1ccc(NC(=O)OCc2ccc(Cl)cc2)cc1)N(C)C(=O)N1CCCC1 [Compound 143, 4-chlorobenzyl (S)-(4-(1-(N-methylpyrrolidine-1-carboxamido)ethyl)phenyl)carbamate]	1.18 µM	10.8 µM
CC1CN(C(=O)N[C@@H](C)c2ccc(NC(=O)OCc3ccc(Cl)cc3)cc2)C1 [Compound 144, (4-chlorophenyl)methyl N-{4-[(1S)-1-(3-methylazetidine-1-carbonylamino)ethyl]phenyl}carbamate]	1.18 µM	7.67 µM
CC1CCN(C(=O)N[C@@H](C)c2ccc(NC(=O)OCc3ccc(Cl)cc3)cc2)CC1 [Compound 145, 4-chlorobenzyl (S)-(4-(1-(4-methylpiperidine-1-carboxamido)ethyl)phenyl)carbamate]	1.19 µM	8.23 µM
Cc1ncc(C(=O)NCc2ccc(NC(=O)OCc3ccc(Cl)cc3)cc2)cc1F [Compound 146, (4-chlorophenyl)methyl N-(4-{[(5-fluoro-6-methylpyridin-3-yl)formamido]methyl}phenyl)carbamate]	1.20 µM	2.35 µM
O=C(Nc1ccc(CNC(=O)c2c(F)cncc2F)cc1)OCc1ccc(Cl)cc1 [Compound 147, (4-chlorophenyl)methyl N-(4-{[15.2 (3,5-difluoropyridin-4-yl)formamido]methyl}phenyl)carbamate]	1.22 µM	5.21 µM
COC(=O)N1CCC(c2ccc(NC(=O)OCc3cnco3)cc2)CC1 [Compound 148, methyl 4-(4-(((oxazol-5-ylmethoxy)carbonyl)amino)phenyl)piperidine-1-carboxylate]	1.23 µM	11.5 µM
C[C@H](NC(=O)c1ccnn1C)c1ccc(NC(=O)OCc2ccc(Cl)cc2)cc1 [Compound 149, (4-chlorophenyl)methyl N-{4-[(1S)-1-[(2-methylpyrazol-3-yl)formamido]ethyl]phenyl}carbamate]	1.23 µM	7 µM
Cc1nocc1C(=O)N[C@@H](C)c1ccc(NC(=O)OCc2ccc(Cl)cc2)cc1 [Compound 150, (4-chlorophenyl)methyl N-{4-[(1S)-1-[(3-methyl-1,2-oxazol-4-yl)formamido]ethyl]phenyl}carbamate]	1.24 µM	4.31 µM
O=C(Nc1ccc(C2CCS(=O)(=O)CC2)cc1)OCc1ccc(Cl)cc1 [Compound 151]	1.25 µM	5.89 µM
Cc1ncoc1C(=O)N[C@@H](C)c1ccc(NC(=O)OCc2ccc(Cl)cc2)cc1 [Compound 152, (4-chlorophenyl)methyl N-{4-[(1S)-1-[(4-methyl-1,3-oxazol-5-yl)formamido]ethyl]phenyl}carbamate]	1.27 µM	10.6 µM
O=C(Nc1ccc(Cc2ccncc2)cc1)OCc1cnco1 [Compound 153, oxazol-5-ylmethyl (4-(pyridin-4-ylmethyl)phenyl)carbamate]	1.27 µM	33.8 µM
C[C@H](NC(=O)N1CCOCC1)c1ccc(NC(=O)OCc2ccc(Cl)cc2)cc1 [Compound 154, 4-chlorobenzyl (S)-(4-(1-(morpholine-4-carboxamido)ethyl)phenyl)carbamate]	1.30 µM	12 µM
Cc1coc(C(=O)N(C)Cc2ccc(NC(=O)OCc3ccc(Cl)cc3)cc2)n1 [Compound 155, (4-chlorophenyl)methyl N-(4-{[N-methyl-1-(4-methyl-1,3-oxazol-2-yl)formamido]methyl}phenyl)carbamate]	1.31 µM	5.8 µM
COC(=O)N1CCN(C(=O)Cc2ccc(NC(=O)OCc3ccc(Cl)cc3)cc2)CC1 [Compound 156, methyl 4-(2-(4-((((4-chlorobenzyl)oxy)carbonyl)amino)phenyl)acetyl)piperazine-1-carboxylate]	1.31 µM	9.45 µM
Cc1ncc(C(=O)NCc2ccc(NC(=O)OCc3ccc(Cl)cc3)cc2)o1 [Compound 157, (4-chlorophenyl)methyl N-(4-{[(2-methyl-1,3-oxazol-5-yl)formamido]methyl}phenyl)carbamate]	1.32 µM	9.11 µM
COc1ccc(C(=O)NCc2ccc(NC(=O)OCc3ccc(Cl)cc3)cc2)cn1 [Compound 158, (4-chlorophenyl)methyl N-(4-{[(6-methoxypyridin-3-yl)formamido]methyl}phenyl)carbamate]	1.32 µM	1.27 µM
C[C@H](NC(=O)c1cncc(F)c1)c1ccc(NC(=O)OCc2ccc(Cl)cc2)cc1 [Compound 159, (4-chlorophenyl)methyl N-{4-[(1S)-1-[(5-fluoropyridin-3-yl)formamido]ethyl]phenyl}carbamate]	1.33 µM	4.3 µM
Cc1cc(C(=O)N(C)Cc2ccc(NC(=O)OCc3ccc(Cl)cc3)cc2)on1 [Compound 160, (4-chlorophenyl)methyl N-(4-{[N-methyl-1-(3-methyl-1,2-oxazol-5-yl)formamido]methyl}phenyl)carbamate]	1.33 µM	5.32 µM
CO[C@H]1CCCN(C(=O)Cc2ccc(NC(=O)OCc3ccc(Cl)cc3)cc2)C1 [Compound 161, 4-chlorobenzyl (S)-(4-(2-(3-methoxypiperidin-1-yl)-2-oxoethyl)phenyl)carbamate]	1.33 µM	10.1 µM
COc1ncc(C(=O)NCc2ccc(NC(=O)OCc3ccc(Cl)cc3)cc2)cn1 [Compound 162, (4-chlorophenyl)methyl N-(4-{[(2-methoxypyrimidin-5-yl)formamido]methyl}phenyl)carbamate]	1.36 µM	4.5 µM

Now from value to molecule:

AC1.4 Human	EC50	Compound
1.37 µM	0.68 µM	CC(C)c1ccc(C(=O)N[C@@H](C)c2ccc(NC(=O)OCc3ccc(Cl)cc3)cc2)cn1 [Compound 163, (4-chlorophenyl)methyl N-{4-[(1S)-1-[(6-isopropylpyridin-3-yl)formamido]ethyl]phenyl}carbamate]
1.38 µM	1.6 µM	C[C@H](NC(=O)c1ccc(C(F)F)nc1)c1ccc(NC(=O)OCc2ccc(Cl)cc2)cc1 [Compound 164, (4-chlorophenyl)methyl N-{4-[(1S)-1-{[6-(difluoromethyl)pyridin-3-yl]formamido}ethyl]phenyl}carbamate]
1.38 µM	7.53 µM	Cc1cc(C)c(C(=O)NCc2ccc(NC(=O)OCc3ccc(Cl)cc3)cc2)cn1 [Compound 165]
1.38 µM	5.87 µM	COCCn1nccc1C(=O)NCc1ccc(NC(=O)OCc2ccc(Cl)cc2)cc1 [Compound 166, (4-chlorophenyl)methyl N-[4-({[2-(2-methoxyethyl)pyrazol-3-yl]formamido}methyl)phenyl]carbamate]
1.39 µM	4.54 µM	CCn1nccc1C(=O)NCc1ccc(NC(=O)OCc2ccc(Cl)cc2)cc1 [Compound 167, (4-chlorophenyl)methyl N-(4-{[(2-ethylpyrazol-3-yl)formamido]methyl}phenyl)carbamate]
1.40 µM	13.9 µM	COc1ccc(COC(=O)Nc2ccc(CN3CCN(C)CC3=O)cc2)cc1 [Compound 168, (4-methoxyphenyl)methyl N-{4-[(4-methyl-2-oxopiperazin-1-yl)methyl]phenyl}carbamate]
1.41 µM	6.11 µM	O=C(Nc1ccc(Cc2ccncc2)cc1)OCc1ccncc1 [Compound 169, pyridin-4-ylmethyl (4-(pyridin-4-ylmethyl)phenyl)carbamate]
1.41 µM	9.33 µM	COC1CN(C(=O)N[C@@H](C)c2ccc(NC(=O)OCc3ccc(Cl)cc3)cc2)C1 [Compound 170, (4-chlorophenyl)methyl N-{4-[(1S)-1-(3-methoxyazetidine-1-carbonylamino)ethyl]phenyl}carbamate]
1.43 µM	9.75 µM	O=C(Nc1ccc(CC(=O)N2CCC[C@H](O)C2)cc1)OCc1ccc(Cl)cc1 [Compound 171, 4-chlorobenzyl (S)-(4-(2-(3-hydroxypiperidin-1-yl)-2-oxoethyl)phenyl)carbamate]
1.43 µM	3.54 µM	O=C(Nc1ccc(Cc2cccnc2)cc1)OCc1ccc(Cl)cc1 [Compound 172, 4-chlorobenzyl (4-(pyridin-3-ylmethyl)phenyl)carbamate]
1.46 µM	4.39 µM	Cc1cc(C(=O)NCc2ccc(NC(=O)OCc3ccc(Cl)cc3)cc2)ccn1 [Compound 173, (4-chlorophenyl)methyl N-(4-{[(2-methylpyridin-4-yl)formamido]methyl}phenyl)carbamate]
